Data on six molecules can be found in patent publication US20050031581A1, “Termite feeding stimulant and method for using same” (priority 2001, published 2005).

SMILES strings stand for the structures.

In data set [1] the test system is termites. The following applies: ambient atmosphere; cited from earlier work.
For data set [2], the system named is Coptotermes formosanus Shiraki. The settings on record: in vivo; cited from earlier work.
Data set [3] deals with termites. The following applies: extended feeding tests, e.g. greater than 30 days; cited from earlier work.
Data set [4] has as its system Mastotermes darviniensis. The settings on record: in vivo; cited from earlier work.
For data set [5], the system named is Coptotermes lacteus. The settings on record: in vivo; cited from earlier work.
Data set [6] relates to termites. The following applies: limited by volatility of the compound; cited from earlier work.
For data set [7], the system named is termites. The experiment in a line: Feeding on bait matrix with chitin synthesis inhibitor added. The settings on record: added to the bait matrix of the bioassays. The data set is classed as in vivo. The protocol:
Note that Chitin synthesis inhibitors, such as hexaflumuron, were added to the bait matrix described in the bioassays above resulting in less feeding on the bait matrix treated with hexaflumuron compared to its control. […] Accordingly, it is believed that adding sitosterol to such a bait matrix may provide a way to overcome the termites' aversion to hexaflumuron.

The test system of data set [8] is Reticulitermes tibialis. The experiment in a line: Field test of sitosterol cellulose pellets in underground termite jar traps. The class given is in vivo. The following applies: pellet 1% sitosterol and 99% cellulose, 15 jar traps in the field, FIG. 1. The protocol:
Sitosterol was tested in the field as a feeding stimulant for Reticulitermes tibialis. Sitosterol (300 mg) was dissolved in 30 ml of acetone and added to 30 gm of cellulose powder (from Bio-Serv Inc., Frenchtown, N.J.), and the combination was dried overnight. A hydraulic press (providing 15,000 pounds per square inch force) was used to make hard pellets (wherein each pellet was approximately 3 gm, 2.5 cm diameter, 5 mm thickness, having 1% sitosterol and 99% cellulose). Control pellets of cellulose powder alone (3 gm) were made similarly.
The pellets were tested in underground termite traps made from Nalgene jars (having dimensions of approximately 10 cm diameter, 10 cm height) with 3 mm holes drilled at 3 cm intervals to allow termites to enter each jar. The jar traps were filled with soil (20% moisture). Two pellets were placed on the surface of the soil both within and at the top of each jar trap, one pellet containing cellulose (3 gm) plus sitosterol […] and the other pellet containing only cellulose (3 gm).
One of the jar traps containing a 1% sitosterol pellet and a cellulose control pellet was placed at the base of a fence post that was previously determined to be infested with termites. The traps were checked once a week for feeding. When termite feeding was apparent, both pellets were removed and weighed to determine the amount of each pellet that had been eaten. […]

For data set [9], the system named is Reticulitermes tibialis. The experiment in a line: Cellulose TLC plate feeding bioassay. The data set is classed as in vivo. The following applies: every dose tested: 30, 100 and 300 ugm per cellulose square; 100 termites, up to 7 days, FIG. 2. The protocol:
Such behavioral feeding bioassays were conducted using the following protocol.
(§1) Termite workers (100 total) were removed from their storage tubs and placed in a smaller plastic Rubbermaid® tub (having a volume of 414 ml) that contained soil (with a 20% by weight moisture). These termites were allowed to acclimate to their new surroundings for 24 hours before the feeding bioassay began. Solutions of sitosterol in acetone (of 1.0 ugm/ul, […], or 10 ugm/ul, respectively) were applied to three different cellulose squares with a Hamilton syringe (of 100 micro-liters (ul) capacity), wherein the squares were provided on a single thin-layer chromatography (TLC) glass plate. For the three cellulose squares, each single cellulose square (of 13.43 mg of cellulose) was evenly wetted with 30 ul of only one of the solutions. Thus, a dose of one of 30 ugm, 100 ugm or 300 ugm of sitosterol was applied, respectively, to a corresponding one of the cellulose squares. Accordingly, the concentrations on these three cellulose squares were, respectively, 2.23 ugm sitosterol/mg cellulose (equivalently, […] sitosterol to cellulose), 7.45 ugm sitosterol/milligram (mg) cellulose (equivalently, 0.745% sitosterol to cellulose), and 22.34 ugm sitosterol/mg cellulose (equivalently, 2.23% sitosterol to cellulose). Note that a fourth cellulose square was treated with 30 ul of acetone as a control. […]

Data set [10] relates to Coptotermes formosanus. The experiment in a line: Cellulose TLC plate feeding bioassay. The class given is in vivo. The following applies: 2.23, 7.45 and 22.34 ugm sitosterol/mg cellulose, FIG. 4. The protocol: as §1
Data set [11] relates to Reticulitermes tibialis. The experiment in a line: Paper feeding bioassay. The class given is in vivo. The settings on record: 0.60, 2.00 and 5.99 ugm sitosterol/mg paper bait substrate; 100 termites, FIG. 3. As to the method:
The termites in the tub were allowed to acclimate to their new surroundings for 24 hours before the present feeding bioassay began. Each of three rectangular bait matrixes (each matrix being approximately 100 mg of bait substrate, the substrate being paper) was divided in two halves with a pencil line, each half having a 50.06 mg bait substrate upon which the termites were to feed. For each bait matrix, one half (the “experimental” half) was provided with a given sitosterol dose, and the other half was provided as a control, and accordingly had no sitosterol applied thereto. In particular, for each bait matrix, exactly one of three solutions of sitosterol in acetone (each solution having one of the concentrations: 1 ugm/ul, […], or 10 ugm/ul) was applied to the “experimental” half of the bait matrix with a Hamilton syringe (of 100 ul capacity), and only acetone was applied to the other (control) half as a control. More precisely, the experimental half of each bait matrix rectangle was evenly wetted with 30 ul of a different one of the solutions of sitosterol, thus applying on the experimental bait matrix half of each bait matrix a dose of only one of 30 ugm, 100 ugm or 300 ugm of sitosterol. The sitosterol concentrations tested were therefore 0.60, 2.00, and 5.99 ugm sitosterol/mg of bait substrate. […]

The test system of data set [12] is termites. The experiment in a line: Toxic effects of sitosterol to termites. The settings on record: in vivo. The text has this: (§2) Several aspects of sitosterol make it a promising compound for enhancing Coptotermes formosanus, and Reticulitermes tibialis control. […] Termite baits are most frequently placed in the soil where moisture conditions are a factor; i.e., soil having at least 20% moisture, and/or occasionally saturated with water. […] Sitosterol has little toxic risk, and it has been tested in humans as an alternative method to lower plasma cholesterol levels. Sitosterol is an economically rational additive to a termite bait system. For example, the cost of the sitosterol needed to treat one termite bait roll of the size and proportion of paper (e.g., 10 cm by 100 cm) is about one cent to reach the concentration of our highest tested dose (300 ugm).

Data set [13] in a line: Physical properties of sitosterol. The data set is classed as physicochemical.
Source text: as §2

Take `O=C=O` [CO2, carbon dioxide]: the “CO2 concentration attractive to termites” value in [1] is recorded as “at least 0.2 % by volume”.

Turning to `N[C@H](CC(=O)O)C(=O)O` [D-aspartic acid], the “feeding compared with a water control” value in data set [2] was “fed upon more than a water control”. For the same molecule, in data set [3], the toxicity to termites result is “has shown toxicity to termites”.

For the molecule `Oc1ccc(O)cc1` [Hydroquinone], the feeding stimulation result in data set [4] and in data set [5] was “stimulated feeding” each time. Further, the “duration of phagostimulatory effects” value in data set [6] was “one month”.

Take `N[C@@H](CCC(=O)O)C(=O)O` [L-glutamic acid]: the “feeding compared with a water control” value in data set [2] is recorded as “fed upon more than a water control”.

With `O=C(NC(=O)c1c(F)cccc1F)Nc1cc(Cl)c(OC(F)(F)C(F)F)c(Cl)c1` [hexaflumuron], in data set [7], the “feeding on treated bait matrix compared to its control” value is “less feeding”.

Turning to `CC[C@H](CC[C@@H](C)[C@H]1CC[C@H]2[C@@H]3CC=C4C[C@@H](O)CC[C@]4(C)[C@H]3CC[C@]12C)C(C)C` [sitosterol], the “amount of pellet eaten by the termites versus cellulose control pellet” value in data set [8] was “more than twice as much”. In addition, in [9], the “feeding on cellulose treated with sitosterol versus control square” value is on record as “fed significantly more”. Besides, the “feeding on cellulose squares having sitosterol versus control square” value in data set [10] is “ate substantially more”. Moreover, the “area of bait matrix half consumed versus control side” value in data set [11] is recorded as “consumed substantially more than the control side”. The “toxic effects to termites” value in data set [12] was “no toxic effects”. In addition, in [13], the stability and volatility entry is “stable, nonvolatile”. The hydrophobicity entry in data set [13] (soil moisture/water) is “hydrophobic compound which resists being washed off”.
